# According to patent publication US20260224537A1, “METHODS AND COMPOSITIONS FOR TREATING GLUCOCORTICOID-MEDIATED DISEASES” (SPARROW PHARMACEUTICALS, INC., priority 2023, published 2026):
# “Also recorded” adds a separate entry of the source.
# Experiments:
# [1] = tested on: patients with polymyalgia rheumatica (PMR); experiment: Clinical trial in PMR: circulating cell counts (lymphoid lineages by quantitative PCR; monocytes, neutrophils, platelets); assay type: in vivo, human
# Method: (§1) In an ongoing clinical trial, patients with polymyalgia rheumatica (PMR), who receive prednisolone 10 mg daily for at least 7 days prior to Day 1, are in remission or have low disease activity, and who meet the inclusion and exclusion criteria (Table 1), enter a 4-week treatment period.
# (§2) From Day 1 to Week 2, participants continue to receive prednisolone 10 mg and placebo for SPI-62, each daily. From Week 2 to Week 4, participants receive prednisolone, at a dose or randomized doses assigned per cohort, and SPI-62 6 mg, each daily. The order of treatments are not randomized due to the long pharmacological half-life of SPI-62, which is understood to be approximately 4-6 weeks based on data collected up to 2-2.5 weeks after cessation of SPI-62 administration in prior clinical trials. Participants are blinded to the order of treatments. Participants are enrolled in cohorts of approximately 12. • During Cohort 1, 12 participants received prednisolone 10 mg with SPI-62 6 mg. Two participants were erroneously dosed with SPI-62 on Day 1. […] Two participants' prednisolone dose was increased to 15 mg prior to Week 4 following adverse events of PMVR aggravated. Those two participants' data are represented in the Figures in the PRL15 CLO6 regimen. […] Those two participants' data are represented in the Figures only in the PRL10 regimen. • During Cohort 2, 12 participants received prednisolone 15 mg (50% dose adjustment) with SPI-62 6 mg. All also received prednisolone 10 mg with placebo for SPI-62. • During Cohort 3, 11 participants received prednisolone 20 mg (100% dose adjustment from Cohort 1) with clofutriben (i.e., SPI-62) 6 mg. All also received prednisolone 10 mg with placebo for SPI-62. […] That participant's data are represented in the Figures in the PRL10 and PRL10 CLO6 regimens. • During Cohort 4, 11 participants received prednisolone 30 mg (100% dose adjustment from Cohort 2) with clofutriben (i.e., SPI-62) 6 mg. • Two additional participants dropped out of the trial before they received clofutriben. Those participants' data are represented in the Figures in the PRL10 regimen.
# FIGS. 1-26 compare the change from baseline during two weeks of treatment with 10 mg prednisolone and placebo (PRL 10), 10 mg prednisolone and 6 mg clofutriben (PRL10 CLO6), 15 mg prednisolone and 6 mg clofutriben (PRL15 CLO6), 20 mg prednisolone and 6 mg clofutriben (PRL20 CLO6), and 30 mg prednisolone and 6 mg clofutriben (PRL30 CLO6). The central horizontal line of each diamond represents the mean of the observed data. The top and bottom vertices represent the 95% confidence interval of the mean. […]
# Counts of several circulating lymphoid cell types were determined by quantitative PCR for lineage-specific DNA methylation patterns. […]
# [2] = prior trials, participants did not receive GCs; cited from earlier work
# [3] = tested on: patients with polymyalgia rheumatica (PMR); experiment: Clinical trial in PMR: assessment of prednisolone toxicity (bone turnover, lipids, glycemic control, coagulation, ECG heart rate, HPA axis); assay type: in vivo, human
# Method: as §1, §2
# FIGS. 1-26 compare the change from baseline during two weeks of treatment with 10 mg prednisolone and placebo (PRL 10), 10 mg prednisolone and 6 mg clofutriben (PRL10 CLO6), 15 mg prednisolone and 6 mg clofutriben (PRL15 CLO6), 20 mg prednisolone and 6 mg clofutriben (PRL20 CLO6), and 30 mg prednisolone and 6 mg clofutriben (PRL30 CLO6). The central horizontal line of each diamond represents the mean of the observed data. The top and bottom vertices represent the 95% confidence interval of the mean. The top and bottom ‘overlap lines’ would indicate statistically significant difference between groups under assumptions of normal data distribution, equal variances, and lack of covariance with baseline value. As one or more of those assumptions is violated for many of the datasets, statistical significance should not be inferred based on the overlap lines in FIGS. 1-26.
# Assessment of prednisolone toxicity focused first on bone turnover biomarkers, which were expected to be the most sensitive based on published evidence of substantial changes within a few days of glucocorticoid administration that correlated with hepatic HSD-1 activity. SPI-62 was associated with changes consistent with an anti-GIOP phenotype, i.e., increases of the bone formation biomarkers OC and P1NP (FIG. 12), and decreases of the bone resorption biomarker CTX (FIG. 13).
# Whether GC-associated HDL increase should be considered GC toxicity is not clear. […] About half of the participants (represented by colored circles) were on cholesterol-lowering agents, while no participants received any additional triglyceride lowering agents. The improvements in cholesterol were attributed mainly to a decrease in HDL, representing a reversal of the HDL-increasing effect of GC by clofutriben. […]
# [4] = Prior clinical trials of SPI-62 (without glucocorticoids); settings: human, in vivo; based on data collected up to 2-2.5 weeks after cessation of SPI-62 administration in prior clinical trials; read-out: pharmacological half-life
# Method: From Day 1 to Week 2, participants continue to receive prednisolone 10 mg and placebo for SPI-62, each daily. From Week 2 to Week 4, participants receive prednisolone, at a dose or randomized doses assigned per cohort, and SPI-62 6 mg, each daily. The order of treatments are not randomized due to the long pharmacological half-life of SPI-62, which is understood to be approximately 4-6 weeks based on data collected up to 2-2.5 weeks after cessation of SPI-62 administration in prior clinical trials. Participants are blinded to the order of treatments. Participants are enrolled in cohorts of approximately 12. • During Cohort 1, 12 participants received prednisolone 10 mg with SPI-62 6 mg. Two participants were erroneously dosed with SPI-62 on Day 1. […] Two participants' prednisolone dose was increased to 15 mg prior to Week 4 following adverse events of PMVR aggravated. Those two participants' data are represented in the Figures in the PRL15 CLO6 regimen. […] Those two participants' data are represented in the Figures only in the PRL10 regimen. • During Cohort 2, 12 participants received prednisolone 15 mg (50% dose adjustment) with SPI-62 6 mg. All also received prednisolone 10 mg with placebo for SPI-62. • During Cohort 3, 11 participants received prednisolone 20 mg (100% dose adjustment from Cohort 1) with clofutriben (i.e., SPI-62) 6 mg. […]
# [5] = tested on: patients with diabetic peripheral neuropathy; settings: SPI-62 without prednisolone, at 6 weeks, prior trials; cited from earlier work
# [6] = molecular target: T1, hepatic HSD-1 (Homo sapiens, UniProt P28845); experiment: Urinary ratio (tetrahydrocortisol+allotetrahydrocortisol)/tetrahydrocortisone, biomarker of hepatic HSD-1 activity; assay type: in vivo
# T1 construct: confirm the pharmacological effect of SPI-62 on hepatic HSD-1 activity; from tissue; host or cells: liver (hepatocytes) of trial subjects, in vivo; read out through urinary steroid metabolites
# T1 sequence (P28845 whole entry): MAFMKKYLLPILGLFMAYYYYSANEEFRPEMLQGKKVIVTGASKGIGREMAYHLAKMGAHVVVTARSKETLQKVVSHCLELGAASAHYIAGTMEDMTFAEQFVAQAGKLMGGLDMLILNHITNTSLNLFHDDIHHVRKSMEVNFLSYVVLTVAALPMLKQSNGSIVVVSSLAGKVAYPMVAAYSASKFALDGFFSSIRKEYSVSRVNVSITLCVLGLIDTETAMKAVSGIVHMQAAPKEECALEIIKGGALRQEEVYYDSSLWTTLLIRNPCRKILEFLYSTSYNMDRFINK
# Method: Data from all cohorts were analyzed together to confirm the pharmacological effect of SPI-62 on hepatic HSD-1 activity. In hepatocytes, 5- and 3-steroid reductases, the latter a liver-specific enzyme, convert cortisol and cortisone to tetrahydro metabolites which are excreted in urine. The urinary ratio (tetrahydrocortisol+allotetrahydrocortisol)/tetrahydrocortisone is an accepted biomarker of hepatic HSD-1 activity. Morning spot urine samples were collected at Baseline (BL), after 2 weeks of prednisolone 10 mg treatment (PRL), after 2 weeks of prednisolone 10-30 mg+clofutriben 6 mg treatment (PRL CLO6), and after 4 weeks washout following the last clofutriben dose (WO). […] The similarity between BL and PBO is an example of the repeatability of the HSD-1 ratio in spot urine samples.
# [7] = tested on: patients with polymyalgia rheumatica (PMR); experiment: Clinical trial in PMR: 13-plex cytokine panel; assay type: in vivo, human; settings: SPI-62 6 mg co-administered with prednisolone; 2 weeks
# Method: as §1
# From Day 1 to Week 2, participants continue to receive prednisolone 10 mg and placebo for SPI-62, each daily. From Week 2 to Week 4, participants receive prednisolone, at a dose or randomized doses assigned per cohort, and SPI-62 6 mg, each daily. The order of treatments are not randomized due to the long pharmacological half-life of SPI-62, which is understood to be approximately 4-6 weeks based on data collected up to 2-2.5 weeks after cessation of SPI-62 administration in prior clinical trials. Participants are blinded to the order of treatments. Participants are enrolled in cohorts of approximately 12. • During Cohort 1, 12 participants received prednisolone 10 mg with SPI-62 6 mg. Two participants were erroneously dosed with SPI-62 on Day 1. […] Two participants' prednisolone dose was increased to 15 mg prior to Week 4 following adverse events of PMVR aggravated. Those two participants' data are represented in the Figures in the PRL15 CLO6 regimen. […] Those two participants' data are represented in the Figures only in the PRL10 regimen. • During Cohort 2, 12 participants received prednisolone 15 mg (50% dose adjustment) with SPI-62 6 mg. All also received prednisolone 10 mg with placebo for SPI-62. • During Cohort 3, 11 participants received prednisolone 20 mg (100% dose adjustment from Cohort 1) with clofutriben (i.e., SPI-62) 6 mg. All also received prednisolone 10 mg with placebo for SPI-62. […] That participant's data are represented in the Figures in the PRL10 and PRL10 CLO6 regimens. • During Cohort 4, 11 participants received prednisolone 30 mg (100% dose adjustment from Cohort 2) with clofutriben (i.e., SPI-62) 6 mg. • Two additional participants dropped out of the trial before they received clofutriben. Those participants' data are represented in the Figures in the PRL10 regimen. […]
# [8] = tested on: patients with polymyalgia rheumatica (PMR); experiment: Clinical trial in PMR: acute phase markers CRP, ESR, fibrinogen; assay type: in vivo, human; settings: change from baseline after 2 weeks daily treatment
# Method: as §1
# (§3) From Day 1 to Week 2, participants continue to receive prednisolone 10 mg and placebo for SPI-62, each daily. From Week 2 to Week 4, participants receive prednisolone, at a dose or randomized doses assigned per cohort, and SPI-62 6 mg, each daily. The order of treatments are not randomized due to the long pharmacological half-life of SPI-62, which is understood to be approximately 4-6 weeks based on data collected up to 2-2.5 weeks after cessation of SPI-62 administration in prior clinical trials. Participants are blinded to the order of treatments. Participants are enrolled in cohorts of approximately 12. • During Cohort 1, 12 participants received prednisolone 10 mg with SPI-62 6 mg. Two participants were erroneously dosed with SPI-62 on Day 1. […] Two participants' prednisolone dose was increased to 15 mg prior to Week 4 following adverse events of PMVR aggravated. […]
# Criterion 2—Acute phase markers C-reactive protein (CRP) and erythrocyte sedimentation rate (ESR), which are standard parameters clinicians use to quantitate systemic inflammation in PMR. […]
# [9] = tested on: patients with polymyalgia rheumatica (PMR); experiment: Clinical trial in polymyalgia rheumatica: PMR disease control, adverse events of PMR aggravated and relapse (Criterion 1); assay type: in vivo, human; settings: 2 weeks daily treatment
# Method: as §1
# as §3, with “aggravated. Those two participants' data are represented in the Figures in the PRL15 CLO6 regimen.” for “aggravated.”
# [10] = tested on: healthy adults; settings: dexamethasone 3 mg, 5 days; cited from earlier work
# [11] = PMR patients, change from baseline after 2 weeks daily treatment
# [12] = co-administration with prednisolone at any prednisolone dose, 2 weeks
# [13] = patients receiving prednisolone, relative to placebo
structure (smiles),measurement,setting,value
"Cn1c(-c2ccc(C(N)=O)cc2F)nnc1C(C)(C)Oc1c(F)cc(Cl)cc1F [SPI-62, 4-(5-(2-(4-chloro-2,6-difluorophenoxy)propan-2-yl)-4-methyl-4H-1,2,4-triazol-3-yl)-3-fluorobenzamide]",monocyte count,[1]; [11],anticipated increases
same,neutrophil count,[1]; [11],anticipated increases
same,platelet count,[1]; [11],anticipated increases
same,"counts of circulating lymphoid cell types (B, IL-6R+, memory B, CD3+T, Th17, Treg)","[1]; SPI-62 6 mg co-administered with prednisolone, 2 weeks","decreases of all counted lineages, which were not fully ameliorated by prednisolone dose adjustment"
same,effect on ECG heart rate,[2],No effect
same,HOMA-IR,[3]; [11],not sensitive
same,HbA1c,[3]; [11],not sensitive; also recorded: close to zero
same,activated partial thromboplastin time (APTT),[3]; [11],improve
same,bone formation biomarker BSAP,[3]; [11],low sensitivity
same,bone formation biomarker P1NP,[3]; [11],increases
same,bone formation biomarker osteocalcin (OC),[3]; [11],increases
same,bone resorption biomarker CTX,[3]; [11],decreases
same,morning serum cortisol,"[3]; PMR patients, change from baseline after 2 weeks daily treatment, compared to placebo",increase
same,Prothrombin International Normalized Ratio (INR),[3]; [12],not observed to be sensitive
same,Prothrombin Time (PT),[3]; [12],not observed to be sensitive
same,plasma ACTH,"[3]; patients receiving prednisolone, clofutriben compared to placebo",increase
same,DHEA-S,[3]; [13],"increase, within or close to the reference range"
same,testosterone,[3]; [13],"increase, within or close to the reference range"
same,hypothalamic-pituitary-adrenal (HPA) axis,[3]; patients that received prednisolone,de-repression
same,half-life,[4],28 to 42 days
same,HbA1c,[5],clinically meaningful decrease
same,hepatic HSD-1 inhibition after washout,[6]; 4 weeks after the last dose of SPI-62,Substantial hepatic HSD-1 inhibition
same,hepatic HSD-1 inhibition,[6]; after 2 weeks of prednisolone 10-30 mg + clofutriben 6 mg,full hepatic HSD-1 inhibition
same,"urinary ratio (tetrahydrocortisol+allotetrahydrocortisol)/tetrahydrocortisone, mean value",[6]; morning spot urine after 2 weeks of prednisolone 10-30 mg + clofutriben 6 mg,≤ 0.2
same,IL-1 receptor antagonist (IL-1RA) level,[7],did not show sensitivity to SPI-62
same,granulocyte colony stimulating factor (G-CSF) level,[7],did not show sensitivity to SPI-62
same,interferon gamma (IFNγ) level,[7],did not show sensitivity to SPI-62
same,fibrinogen (PF) level,[8],increased
"C[C@]12C=CC(=O)C=C1CC[C@@H]1[C@@H]2[C@@H](O)C[C@@]2(C)[C@H]1CC[C@]2(O)C(=O)CO [prednisolone, reference compound]",HbA1c,[3]; [11],decrease
same,LDL cholesterol,[3]; [11],encompassed zero
same,cholesterol,[3]; [11],encompassed zero
same,triglycerides,[3]; [11],encompassed zero
same,incidence of adverse events of PMR aggravated,[9]; participants with event/participants,0/50
same,PMR relapse (increase of PMR symptoms or disease activity such that a prednisolone dose increase was indicated),[9]; participants with relapse/participants,0/50
C[C@@H]1C[C@H]2[C@@H]3CCC4=CC(=O)C=C[C@]4(C)[C@@]3(F)[C@@H](O)C[C@]2(C)[C@@]1(O)C(=O)CO [dexamethasone],ECG heart rate decrease,[10],approximately 12 bpm
same,HDL cholesterol,[10],clinically meaningful increase
same,LDL cholesterol,[10],not particularly sensitive
same,triglycerides,[10],not particularly sensitive
